This is an account of results in patent US20100311592A1, “USE OF 2-IODO-N 4-METHOXY-6-METHYL-1,3,5-TRIAZINE-2-YL CARBAMOYL BENZENESULFONAMIDE AND/OR SALTS THEREOF FOR COMBATING UNDESIRED PLANT GROWTH IN SELECTED USEFUL PLANT CROPS OR NON-CULTIVATED LAND” (Bayer CropScience AG, priority 2007, published 2010).

Type in all cases: in vivo
Data set [1] relates to Lolium multiflorum. In words: Pre-emergence herbicidal activity. The note with it: pre-emergence method, application rate of 0.1 kg or less of active substance per hectare, visual scoring after 3 to 4 weeks. The text has this: (§1) Seeds or rhizome pieces of mono- and dicotyledonous weeds were placed in sandy loam in cardboard pots and covered with soil. The compounds according to the invention, formulated in the form of wettable powders or emulsion concentrates, were then applied to the surface of the covering soil in the form of aqueous suspensions or emulsions at an application rate of 100 to 8001 of water/ha (converted), at various dosages.
(§2) After the treatment, the pots were placed in a greenhouse and kept under good growth conditions for the weeds. Visual scoring of the damage to the plants or the emergence damage was carried out after the emergence of the test plants after a test period of 3 to 4 weeks, by comparison with untreated controls. As shown by the results, the compounds according to the invention have good herbicidal pre-emergence activity against a broad spectrum of weed grasses and broad-leaved weeds.

Data set [2] concerns Matricaria inodora. In words: Pre-emergence herbicidal activity. Particulars: pre-emergence method, application rate of 0.1 kg or less of active substance per hectare, visual scoring after 3 to 4 weeks.
Source text: as §1, §2

For data set [3], the system named is Papaver rhoeas. Description: Pre-emergence herbicidal activity. Particulars: pre-emergence method, application rate of 0.1 kg or less of active substance per hectare, visual scoring after 3 to 4 weeks.
Source text: as §1, §2

Data set [4] concerns Stellaria media. In words: Pre-emergence herbicidal activity. Particulars: pre-emergence method, application rate of 0.1 kg or less of active substance per hectare, visual scoring after 3 to 4 weeks.
Source text: as §1, §2

The subject of data set [5] is Viola tricolor. Description: Pre-emergence herbicidal activity. Particulars: pre-emergence method, application rate of 0.1 kg or less of active substance per hectare, visual scoring after 3 to 4 weeks.
Source text: as §1, §2

The subject of data set [6] is Abuthilon theophrasti. In words: Post-emergence action against weeds. The note with it: post-emergence method, application rate of 0.1 kg or less of active substance per hectare, visual scoring after about 3 to 4 weeks. As for the experimental part:
(§3) Seeds or rhizome pieces of monocotyledonous and dicotyledonous weeds were placed in sandy loam in plastic pots, covered with soil and cultivated in a greenhouse under good growth conditions. Three weeks after sowing, the test plants were treated at the three-leaf stage.

The test system of data set [7] is Amaranthus retroflexus. Description: Post-emergence action against weeds. Particulars: post-emergence method, application rate of 0.1 kg or less of active substance per hectare, visual scoring after about 3 to 4 weeks. The protocol: as §3
In data set [8] the test system is Ipomoea purpurea. Description: Post-emergence action against weeds. Particulars: post-emergence method, application rate of 0.1 kg or less of active substance per hectare, visual scoring after about 3 to 4 weeks. As for the experimental part: as §3
Data set [9] relates to Lolium multiflorum. In words: Post-emergence action against weeds. The note with it: post-emergence method, application rate of 0.1 kg or less of active substance per hectare, visual scoring after about 3 to 4 weeks. As for the experimental part: as §3
For data set [10], the system named is Matricaria inodora. In words: Post-emergence action against weeds. Particulars: post-emergence method, application rate of 0.1 kg or less of active substance per hectare, visual scoring after about 3 to 4 weeks. The protocol:
as §3

Data set [11] relates to Stellaria media. In words: Post-emergence action against weeds. Particulars: post-emergence method, application rate of 0.1 kg or less of active substance per hectare, visual scoring after about 3 to 4 weeks. As for the experimental part:
as §3

The subject of data set [12] is Veronica persica. Description: Post-emergence action against weeds. The note with it: post-emergence method, application rate of 0.1 kg or less of active substance per hectare, visual scoring after about 3 to 4 weeks. As for the experimental part:
as §3

Data set [13] concerns Viola tricolor. Description: Post-emergence action against weeds. The note with it: post-emergence method, application rate of 0.1 kg or less of active substance per hectare, visual scoring after about 3 to 4 weeks. The protocol: as §3
Data set [14] has as its system barley. In words: Compatibility with crop plants. Particulars: pre- or post-emergence treatment in the greenhouse; visual scoring four to five weeks after application; even at relatively high application rates. The text has this: In further tests in the greenhouse, seeds of a relatively large number of crop plants and weeds were placed in sandy loam and covered with soil. Some of the pots were immediately treated as described in section 1, the others were placed in the greenhouse until the plants had developed two to three true leaves and were then sprayed with 2-iodo-N-[(4-methoxy-6-methyl-1,3,5-triazin-2-yl)carbamoyl]benzenesulfonamide and also, for example, the compounds Nos. I-1, I-2, I-3, I-4, I-12, I-18 and 1-19 from Table 1, as described in section 2.

SMILES strings stand for the structures.

With `COc1nc(C)nc(NC(=O)NS(=O)(=O)c2ccccc2I)n1` [2-iodo-N-[(4-methoxy-6-methyl-1,3,5-triazin-2-yl)carbamoyl]benzenesulfonamide], the herbicidal activity entry in data set [1], in data set [2], in data set [3], in [4], in data set [5] and in data set [6] was “very good herbicidal activity” throughout. For the same molecule, the herbicidal activity result in data set [7], in data set [8], in data set [9], in data set [10], in data set [11] and in data set [12] was “very good herbicidal activity” each time. Further, the herbicidal activity result in data set [13] is given as “very good herbicidal activity”. For the same molecule, in data set [14], the damage to barley entry is on record as “did not damage barley at all or left only marginal traces of damage”.

Consider `CCCC[N+](CCCC)(CCCC)CCCC.COc1nc(C)nc(NC(=O)[N-]S(=O)(=O)c2ccccc2I)n1` [Compound I-18], for which the herbicidal activity entry in [1], in data set [2], in data set [3], in [4], in data set [5] and in data set [6] was “very good herbicidal activity” throughout. The herbicidal activity result in data set [7], in data set [8], in data set [9], in [10], in data set [11] and in data set [12] was “very good herbicidal activity” each time. For the same molecule, the herbicidal activity result in [13] was “very good herbicidal activity”. In addition, in data set [14], the damage to barley entry is listed as “did not damage barley at all or left only marginal traces of damage”.

Consider `CC[N+](CC)(CC)CC.COc1nc(C)nc(NC(=O)[N-]S(=O)(=O)c2ccccc2I)n1` [Compound I-12], for which the herbicidal activity entry in data set [1], in [2], in [3], in [4], in [5] and in data set [6] was “very good herbicidal activity” in each case. In addition, the herbicidal activity entry in [7], in data set [8], in data set [9], in [10], in data set [11] and in [12] was “very good herbicidal activity” throughout. Also, the herbicidal activity result in data set [13] is “very good herbicidal activity”. Further, the damage to barley result in data set [14] is listed as “did not damage barley at all or left only marginal traces of damage”.
